Laboratory results published in article PMC12843137, “Fine-Tuning Side Chain Substitutions: Impacts on the Lipophilicity–Solubility–Permeability Interplay in Macrocyclic Peptides” (Marine Drugs, 2025).
Where two headings read alike, the source gives them in different places. Blank lines part the entries; values can stand above or below the compound they belong to.

Tests used:
[1] = tested on: PANC-1 cells; conditions: CCK-8; cited from earlier work
[2] = target: T1, recombinant human eEF1A1 (Homo sapiens, UniProt P68104); assay: MicroScale Thermophoresis (MST) binding assay; conditions: for Kd: MST, 50 mM HEPES pH 7.4, 0.05% Tween-20, triplicate, mean ± SD
T1 construct: purchased TMPH-01283
T1 sequence (P68104 1-462): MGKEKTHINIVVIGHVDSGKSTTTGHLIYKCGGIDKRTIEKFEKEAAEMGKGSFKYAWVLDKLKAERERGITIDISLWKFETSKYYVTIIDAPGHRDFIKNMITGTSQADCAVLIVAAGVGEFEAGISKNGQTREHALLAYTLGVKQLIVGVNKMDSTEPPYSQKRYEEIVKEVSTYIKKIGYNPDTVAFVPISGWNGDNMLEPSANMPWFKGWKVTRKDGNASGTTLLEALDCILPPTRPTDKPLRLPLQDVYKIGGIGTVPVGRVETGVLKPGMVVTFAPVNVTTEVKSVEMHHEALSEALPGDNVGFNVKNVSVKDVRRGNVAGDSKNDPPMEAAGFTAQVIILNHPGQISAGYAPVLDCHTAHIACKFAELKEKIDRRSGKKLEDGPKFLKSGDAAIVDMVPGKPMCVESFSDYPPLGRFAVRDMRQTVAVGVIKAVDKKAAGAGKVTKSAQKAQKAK
Description: To investigate whether the loss of cellular activity in the BE derivatives results from diminished binding to the known intracellular target eEF1A1, we assessed direct target engagement using MST. Recombinant human eEF1A1 protein was titrated against the compounds, which were supplied in HEPES buffer (pH 7.4) and diluted as required. Binding interactions were quantified by monitoring changes in thermophoretic mobility. Detailed materials and protein labeling procedures are provided in the Supporting Information.
Compounds were serially diluted (16-point, 2-fold) in assay buffer (50 mM HEPES, pH 7.4, 0.05% Tween-20) as ligands. Labeled eEF1A1 protein (target) was mixed 1:1 with each dilution and incubated at room temperature for 20 min. Samples were loaded into premium capillaries and analyzed on the Monolith X instrument following the manufacturer’s protocol, with infrared laser excitation at 1480 nm to generate a temperature gradient. Thermophoretic mobility was monitored via fluorescence changes before, during, and after laser activation.
Data were analyzed using NanoTemper Analysis software (version 2.3) to fit binding curves and determine dissociation constants (Kd). Experiments were performed in triplicate, and Kd values are reported as mean ± standard deviation.
The Lucifer Yellow fluorescence (to monitor monolayer integrity) signal is measured in a fluorescence plate reader at 485 nm excitation and 530 nm emission.
The leakage of Lucifer Yellow, in unit of percentage (%), can be calculated using the following equation:
%LY leakage = 100×[LY]acceptor/([LY]donor+[LY]acceptor)
Where [LY]acceptor is the fluorescence intensity in the acceptor well (0.3 mL), and [LY]donor is the fluorescence intensity in the donor well (0.1 mL) and expressed as % leakage. The percentage of Lucifer yellow leakage […]
should be less than 1.0%. […]
monolayers will be compared. […]
those in the replicate transwells (CV<30%), the monolayer's Papp data will be considered valid and […]
Supplementary Table S3. The assessment of caco-2 cell monolayer integrity. […]

Compound: CCCCCCCCCCCCCC1OC(=O)CN(C)C(=O)C=CC(CN2CCN(C)CC2)NC(=O)CNC(=O)C(C)(O)C(=O)C1C (stereo not shown) [BE-NMP]
IC50 [1]: 0.65 ± 0.19 µM

Kd ([2]; read-out: Kd): 7.82 ± 0.63 µM | fold weaker affinity than the parent BE ([2]; ratio of MST Kd values): approximately 3.4 fold
Compound: CCCCOc1ccc(-c2ccc(-c3ccc(Cn4cc(CCCCC[C@H]5OC(=O)CN(C)C(=O)/C=C/[C@@H](CN6CCN(C)CC6)NC(=O)CNC(=O)[C@@](C)(O)C(=O)[C@H]5C)nn4)cc3)cc2)cc1 [Compound 29]

Kd [2]: no detectable binding
Compound: CC1C(=O)C(C)(O)C(=O)NCC(=O)NC(CN2CCN(C)CC2)C=CC(=O)N(C)CC(=O)OC1CCCCc1cn(CCCCCCCCNC(=N)N)nn1 (stereo not shown) [Compound 31]
